Experimental data published in the supplement of paper PMC10307832.

What follows are cell lines tested with C1CCC(CC1)N(CCNCCC2=C3C(=C(C=C2)O)NC(=O)CO3)C(=O)CCNCCC4=CC(=C(C=C4)Cl)Cl [AZ505] + CC(=O)c1c(C)c2cnc(Nc3ccc(N4CCNCC4)cn3)nc2n(C2CCCC2)c1=O [Palbociclib] (partner 0.5 µM) (assay: relative viability (nuclei count vs DMSO), 5 days (fraction); higher = more cells survive). Settings: first compound 0.08 µM.
Procedure, shortened: (§1)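 A single step with final 0.05% Triton X-100, 1% formaldehyde and 1 ug/ml Hoechst fixed the cells and stained nuclei 5 days after treatment. Lung cancer cell lines in 1536-well plates had been treated by pin tool the day after seeding with one drug alone or a fixed anchor-drug dose plus five library-drug doses (not always all listed) in √10 steps, and nuclei were counted on 4× images. Relative viability is the ratio of nuclei in treated wells to nuclei in vehicle wells, taken as the median of duplicate plates.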

| Cell Line | relative viability |
| --- | --- |
| NCI-H2342 | 0.472 |
| NCI-H727 | 0.598 |
| NCI-H1650 | 0.34 |
| NCI-H1993 | 0.599 |
| SK-LU-1 | 0.319 |
| NCI-H838 | 0.236 |
| LCLC-103H | 0.485 |
| NCI-H520 | 0.229 |
| NCI-H2126 | 0.353 |
| EMC-BAC-2 | 0.437 |
| NCI-H2085 | 0.451 |
| HCC-366 | 0.361 |
| NCI-H1666 | 0.625 |
| LK-2 | 0.487 |
| NCI-H2087 | 0.225 |
| SK-MES-1 | 0.31 |
| H3255 | 0.292 |
| COR-L23 | 0.259 |
| COR-L 105 | 0.399 |
| LOU-NH91 | 0.55 |
| ChaGo-K-1 | 0.823 |
| NCI-H2170 | 0.38 |
| NCI-H2405 | 0.427 |

Same assay, conditions: first compound 0.253 µM

| Cell Line | relative viability |
| --- | --- |
| NCI-H2342 | 0.509 |
| NCI-H727 | 0.687 |
| NCI-H1650 | 0.412 |
| NCI-H1993 | 0.705 |
| SK-LU-1 | 0.343 |
| NCI-H838 | 0.191 |
| LCLC-103H | 0.455 |
| NCI-H520 | 0.235 |
| NCI-H2126 | 0.375 |
| EMC-BAC-2 | 0.528 |
| NCI-H2085 | 0.469 |
| HCC-366 | 0.491 |
| NCI-H1666 | 0.648 |
| LK-2 | 0.73 |
| NCI-H2087 | 0.27 |
| NCI-H1648 | 0.264 |
| SK-MES-1 | 0.316 |
| H3255 | 0.31 |
| COR-L23 | 0.253 |
| COR-L 105 | 0.405 |
| LOU-NH91 | 0.534 |
| ChaGo-K-1 | 0.999 |
| NCI-H2170 | 0.39 |

Same assay, conditions: first compound 0.8 µM

| Cell Line | relative viability |
| --- | --- |
| NCI-H2342 | 0.575 |
| NCI-H727 | 0.625 |
| NCI-H1650 | 0.278 |
| NCI-H1993 | 0.621 |
| SK-LU-1 | 0.292 |
| NCI-H838 | 0.195 |
| LCLC-103H | 0.455 |
| NCI-H520 | 0.201 |
| NCI-H2126 | 0.365 |
| EMC-BAC-2 | 0.496 |
| NCI-H2085 | 0.459 |
| HCC-366 | 0.326 |
| NCI-H1666 | 0.621 |
| LK-2 | 0.768 |
| NCI-H2087 | 0.312 |
| NCI-H1648 | 0.305 |
| SK-MES-1 | 0.26 |
| H3255 | 0.301 |
| COR-L23 | 0.264 |
| COR-L 105 | 0.369 |
| LOU-NH91 | 0.551 |
| ChaGo-K-1 | 1 |
| NCI-H2170 | 0.379 |
| NCI-H2405 | 0.441 |

Same assay, conditions: first compound 2.53 µM

| Cell Line | relative viability |
| --- | --- |
| NCI-H2342 | 0.549 |
| NCI-H727 | 0.552 |
| NCI-H1650 | 0.35 |
| NCI-H1993 | 0.583 |
| SK-LU-1 | 0.322 |
| NCI-H838 | 0.216 |
| LCLC-103H | 0.45 |
| NCI-H520 | 0.263 |
| NCI-H2126 | 0.366 |
| EMC-BAC-2 | 0.509 |
| NCI-H2085 | 0.477 |
| HCC-366 | 0.402 |
| NCI-H1666 | 0.72 |
| LK-2 | 0.792 |
| NCI-H2087 | 0.22 |
| NCI-H1648 | 0.284 |
| SK-MES-1 | 0.294 |
| H3255 | 0.298 |
| COR-L23 | 0.284 |
| COR-L 105 | 0.406 |
| LOU-NH91 | 0.562 |
| ChaGo-K-1 | 0.92 |
| NCI-H2170 | 0.401 |
| NCI-H2405 | 0.463 |

Same assay, conditions: first compound 8 µM

| Cell Line | relative viability |
| --- | --- |
| NCI-H2342 | 0.505 |
| NCI-H727 | 0.674 |
| NCI-H1650 | 0.317 |
| NCI-H1993 | 0.713 |
| SK-LU-1 | 0.336 |
| NCI-H838 | 0.195 |
| LCLC-103H | 0.452 |
| NCI-H520 | 0.237 |
| NCI-H2126 | 0.338 |
| EMC-BAC-2 | 0.526 |
| NCI-H2085 | 0.446 |
| HCC-366 | 0.384 |
| NCI-H1666 | 0.601 |
| LK-2 | 0.898 |
| NCI-H2087 | 0.197 |
| NCI-H1648 | 0.27 |
| SK-MES-1 | 0.32 |
| H3255 | 0.302 |
| COR-L23 | 0.281 |
| COR-L 105 | 0.399 |
| LOU-NH91 | 0.536 |
| ChaGo-K-1 | 0.91 |
| NCI-H2170 | 0.434 |
| NCI-H2405 | 0.426 |

The cell lines below were run with Cn1c(=O)n(-c2ccc(C(C)(C)C#N)cc2)c2c3cc(-c4cnc5ccccc5c4)ccc3ncc21 [Dactolisib] + N=C(N)NC(=N)NCCc1ccccc1 [Phenformin] (partner 250 µM) in the same assay as above. Settings: first compound 0.002 µM.
Procedure, shortened: as §1

| Cell Line | relative viability |
| --- | --- |
| NCI-H2342 | 0.492 |
| NCI-H1623 | 0.618 |
| NCI-H727 | 0.653 |
| NCI-H1650 | 0.355 |
| NCI-H1993 | 0.486 |
| SK-LU-1 | 0.273 |
| NCI-H838 | 0.628 |
| LCLC-103H | 0.369 |
| NCI-H520 | 0.529 |
| NCI-H2126 | 0.562 |
| EMC-BAC-2 | 0.51 |
| NCI-H2085 | 0.839 |
